Reference: EP4635500A1, “THERAPEUTIC AGENT FOR BACTERIAL INFECTION” (Sumitomo Pharma Co., Ltd., priority 2022, dated 2024)
Read-outs that look alike come from different tables or passages of the source.

Tested on: P. aeruginosa
Experiment: MIC, broth microdilution, CDC/FDA Antibiotic Resistance Isolate Bank (Example 7, Tables 10, 15)
Type: cell-based
Conditions: for MIC: Pseudomonas aeruginosa, read-out: MIC
[1] = 26 metallo-carbapenemase-producing P. aeruginosa strains, β-lactamase inhibitor µg/mL in parentheses
[2] = 96 strains of P. aeruginosa, β-lactamase inhibitor µg/mL in parentheses

C[C@H]1COc2c(N3CCN(C)CC3)c(F)cc3c(=O)c(C(=O)O)cn1c23 [Levofloxacin, levofloxacin]
0.008 µg/mL: MIC (P. aeruginosa KUB No. 5813, AR Bank # 508) | MIC (P. aeruginosa KUB No. 5815, AR Bank # 510)
0.5 µg/mL: MIC (P. aeruginosa KUB No. 579, AR Bank # 447) | MIC (P. aeruginosa KUB No. 5670, AR Bank # 237) | MIC (P. aeruginosa KUB No. 5671, AR Bank # 238) | MIC (P. aeruginosa KUB No. 5689, AR Bank # 256) | MIC (P. aeruginosa KUB No. 5691, AR Bank # 258) | MIC (P. aeruginosa KUB No. 5692, AR Bank # 259) | MIC (P. aeruginosa KUB No. 5752, AR Bank # 356) | MIC (P. aeruginosa KUB No. 5787, AR Bank # 441)
32 µg(mL): MIC against 26 metallo-carbapenemase-producing strains MIC50 [1] | MIC against 96 strains of P. aeruginosa MIC50 [2]
> 64 µg/mL: MIC (P. aeruginosa KUB No. 5597, AR Bank # 100) | MIC (P. aeruginosa KUB No. 5602, AR Bank # 105) | MIC (P. aeruginosa KUB No. 5673, AR Bank # 240) | MIC (P. aeruginosa KUB No. 5678, AR Bank # 245) | MIC (P. aeruginosa KUB No. 5799, AR Bank # 456) | MIC (P. aeruginosa KUB No. 5806, AR Bank # 864)
64 µg(mL): MIC against 96 strains of P. aeruginosa MIC90 [2]
1 µg/mL: MIC (P. aeruginosa KUB No. 5680, AR Bank # 247) | MIC (P. aeruginosa KUB No. 5686, AR Bank # 253) | MIC (P. aeruginosa KUB No. 5756, AR Bank # 360)
0.032 µg/mL: MIC (P. aeruginosa KUB No. 5814, AR Bank # 509) | MIC (P. aeruginosa KUB No. 5831, AR Bank # 526) | MIC (P. aeruginosa KUB No. 5832, AR Bank # 527) | MIC (P. aeruginosa KUB No. 5833, AR Bank # 528)
>64 µg(mL): MIC against 26 metallo-carbapenemase-producing strains MIC90 [1]
16 µg/mL: MIC (P. aeruginosa KUB No. 5669, AR Bank # 236) | MIC (P. aeruginosa KUB No. 5675, AR Bank # 242) | MIC (P. aeruginosa KUB No. 5676, AR Bank # 243) | MIC (P. aeruginosa KUB No. 5681, AR Bank # 248) | MIC (P. aeruginosa KUB No. 5685, AR Bank # 252) | MIC (P. aeruginosa KUB No. 5687, AR Bank # 254)
8 µg/mL: MIC (P. aeruginosa KUB No. 5665, AR Bank # 232) | MIC (P. aeruginosa KUB No. 5667, AR Bank # 234) | MIC (P. aeruginosa KUB No. 5684, AR Bank # 251) | MIC (P. aeruginosa KUB No. 5701, AR Bank # 268) | MIC (P. aeruginosa KUB No. 5705, AR Bank # 272) | MIC (P. aeruginosa KUB No. 5747, AR Bank # 351) | MIC (P. aeruginosa KUB No. 5750, AR Bank # 354) | MIC (P. aeruginosa KUB No. 5754, AR Bank # 358) | MIC (P. aeruginosa KUB No. 5755, AR Bank # 359) | MIC (P. aeruginosa KUB No. 5802, AR Bank # 459)
0.016 µg/mL: MIC (P. aeruginosa KUB No. 5834, AR Bank # 529)
64 µg/mL: MIC (P. aeruginosa KUB No. 5083, AR Bank # 250) | MIC (P. aeruginosa KUB No. 5551, AR Bank # 54) | MIC (P. aeruginosa KUB No. 5589, AR Bank # 92) | MIC (P. aeruginosa KUB No. 5591, AR Bank # 94) | MIC (P. aeruginosa KUB No. 5600, AR Bank # 103) | MIC (P. aeruginosa KUB No. 5605, AR Bank # 108) | MIC (P. aeruginosa KUB No. 5662, AR Bank # 229) | MIC (P. aeruginosa KUB No. 5664, AR Bank # 231) | MIC (P. aeruginosa KUB No. 5668, AR Bank # 235) | MIC (P. aeruginosa KUB No. 5672, AR Bank # 239) | MIC (P. aeruginosa KUB No. 5677, AR Bank # 244) | MIC (P. aeruginosa KUB No. 5682, AR Bank # 249) | MIC (P. aeruginosa KUB No. 5690, AR Bank # 257) | MIC (P. aeruginosa KUB No. 5698, AR Bank # 265) | MIC (P. aeruginosa KUB No. 5788, AR Bank # 443) | MIC (P. aeruginosa KUB No. 5800, AR Bank # 457) | MIC (P. aeruginosa KUB No. 5805, AR Bank # 863)
32 µg/mL: MIC (P. aeruginosa KUB No. 5561, AR Bank # 64) | MIC (P. aeruginosa KUB No. 5587, AR Bank # 90) | MIC (P. aeruginosa KUB No. 5592, AR Bank # 95) | MIC (P. aeruginosa KUB No. 5607, AR Bank # 110) | MIC (P. aeruginosa KUB No. 5608, AR Bank # 111) | MIC (P. aeruginosa KUB No. 5663, AR Bank # 230) | MIC (P. aeruginosa KUB No. 5674, AR Bank # 241) | MIC (P. aeruginosa KUB No. 5679, AR Bank # 246) | MIC (P. aeruginosa KUB No. 5688, AR Bank # 255) | MIC (P. aeruginosa KUB No. 5693, AR Bank # 260) | MIC (P. aeruginosa KUB No. 5697, AR Bank # 264) | MIC (P. aeruginosa KUB No. 5699, AR Bank # 266) | MIC (P. aeruginosa KUB No. 5700, AR Bank # 267) | MIC (P. aeruginosa KUB No. 5702, AR Bank # 269) | MIC (P. aeruginosa KUB No. 5703, AR Bank # 270) | MIC (P. aeruginosa KUB No. 5704, AR Bank # 271) | MIC (P. aeruginosa KUB No. 5748, AR Bank # 352) | MIC (P. aeruginosa KUB No. 5749, AR Bank # 353) | MIC (P. aeruginosa KUB No. 5751, AR Bank # 355) | MIC (P. aeruginosa KUB No. 5753, AR Bank # 357) | MIC (P. aeruginosa KUB No. 5785, AR Bank # 439) | MIC (P. aeruginosa KUB No. 5786, AR Bank # 440) | MIC (P. aeruginosa KUB No. 5789, AR Bank # 444) | MIC (P. aeruginosa KUB No. 5790, AR Bank # 445) | MIC (P. aeruginosa KUB No. 5793, AR Bank # 449)
> 0.064 µg/mL: MIC (P. aeruginosa KUB No. 5818, AR Bank # 513) | MIC (P. aeruginosa KUB No. 5820, AR Bank # 515)
0.064 µg/mL: MIC (P. aeruginosa KUB No. 5823, AR Bank # 518)
2 µg/mL: MIC (P. aeruginosa KUB No. 5666, AR Bank # 23) | MIC (P. aeruginosa KUB No. 5695, AR Bank # 262) | MIC (P. aeruginosa KUB No. 5696, AR Bank # 263) | MIC (P. aeruginosa KUB No. 5801, AR Bank # 458)
4 µg/mL: MIC (P. aeruginosa KUB No. 5694, AR Bank # 261) | MIC (P. aeruginosa KUB No. 5798, AR Bank # 455) | MIC (P. aeruginosa KUB No. 5804, AR Bank # 862)
0.004 µg/mL: MIC (P. aeruginosa KUB No. 5817, AR Bank # 512)
0.001 µg/mL: MIC (P. aeruginosa KUB No. 5816, AR Bank # 511) | MIC (P. aeruginosa KUB No. 5819, AR Bank # 514) | MIC (P. aeruginosa KUB No. 5821, AR Bank # 516)
